US20240391965A1, “STAPLED ANTIMICROBIAL PEPTIDES (STAMPS) AND USES THEREOF” (Lytica Therapeutics, Inc., priority 2021, published 2024)
Converted amounts (≈) assume the structure as drawn. Starred links: 1 amine or outer side, 2 acyl side, 3 side chain; linkers in the order of their positions; H or OH if unused. Positions of bridges follow the written chain, without caps; N, C: chain ends. Residues, ends and D or L forms follow the SMILES beside them. Biphenyl(4,4'-CH2)2 = c1cc(-c2ccc(C[*:2])cc2)ccc1C[*:1]; mXylylene = c1cc(C[*:1])cc(C[*:2])c1; X1 = C(=CC[*:2])C[*:1]

Key:
[1] = 48 hours cytotoxicity assay (CellTiter-Glo), liver toxicity; format: cell-based, human
In short: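 Viability from CellTiter-Glo luminescence after StAMP dilution series or vehicle acted on HepG2 cells for 48 h at 37 °C. Cells were grown in EMEM plus 10% FBS and given 4 h to attach before dosing.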

[2] = 90 minute cytotoxicity assay (LDH release), renal toxicity; format: cell-based
In short: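 Released lactate dehydrogenase, read as absorbance at 490 nm after 10 min with assay reagent, serves as read-out. Renal proximal tubule epithelial cells received peptide serial dilutions or vehicle for 90 min at 37° C after overnight plating.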

Row | Compound | IC50 [1] [µg/mL] | IC50 [2] [µg/mL]
1 | CC[C@H](C)[C@H](NC(=O)[C@H](CC(C)C)NC(=O)[C@H](CC(C)C)NC(=O)[C@H](CC(N)=O)NC(=O)[C@H](CCCCN)NC(=O)[C@@H](NC(=O)[C@H](CCCCN)NC(=O)[C@H](CCCCN)NC(=O)CNC(=O)[C@H](C)NC(=O)[C@H](CC(C)C)NC(=O)[C@@H]1CSCC=CCSC[C@H](N)C(=O)N[C@@H]([C@@H](C)CC)C(=O)N[C@@H](Cc2ccccc2)C(=O)N[C@@H](CO)C(=O)N1)[C@@H](C)CC)C(=O)N[C@@H](CO)C(=O)NCC(=O)N[C@@H](CC(C)C)C(=O)N[C@@H](CCCCN)C(=O)NCC(N)=O [compound 38] (H-CIFSCLAGKKIKNLLISGLKG-NH2; linker 1-5 via X1; N-terminus assumed) | > 200 | > 200
2 | CC[C@H](C)[C@H](NC(=O)CN)C(=O)N[C@@H](Cc1ccccc1)C(=O)N[C@@H](CO)C(=O)N[C@@H](CCCCN)C(=O)N[C@@H](CC(C)C)C(=O)N[C@@H](C)C(=O)NCC(=O)N[C@H]1CSCc2cccc(c2)CSC[C@@H](C(=O)N[C@@H](CC(C)C)C(=O)N[C@@H](CC(C)C)C(=O)N[C@H](C(=O)N[C@@H](CO)C(=O)NCC(=O)N[C@@H](CC(C)C)C(=O)N[C@@H](CCCCN)C(=O)NCC(N)=O)[C@@H](C)CC)NC(=O)[C@H](CCCCN)NC(=O)[C@H]([C@@H](C)CC)NC(=O)[C@H](CCCCN)NC1=O [compound 42] (H-GIFSKLAGCKIKCLLISGLKG-NH2; linker 9-13 via mXylylene; N-terminus assumed) | > 200 | > 200
3 | CC[C@H](C)[C@H](NC(=O)CN)C(=O)N[C@@H](Cc1ccccc1)C(=O)N[C@@H](CO)C(=O)N[C@@H](CCCCN)C(=O)N[C@H]1CSCc2ccc(cc2)-c2ccc(cc2)CSC[C@@H](C(=O)N[C@@H](CC(C)C)C(=O)N[C@@H](CC(C)C)C(=O)N[C@H](C(=O)N[C@@H](CO)C(=O)NCC(=O)N[C@@H](CC(C)C)C(=O)N[C@@H](CCCCN)C(=O)NCC(N)=O)[C@@H](C)CC)NC(=O)[C@H](CCCCN)NC(=O)[C@H]([C@@H](C)CC)NC(=O)[C@H](CCCCN)NC(=O)[C@H](CCCCN)NC(=O)CNC(=O)[C@H](C)NC1=O [compound 65] (H-GIFSKCAGKKIKCLLISGLKG-NH2; linker 6-13 via Biphenyl(4,4'-CH2)2; N-terminus assumed) | 13 (≈ 5.55 µM) | 15 (≈ 6.4 µM)
4 | CC[C@H](C)[C@H](NC(=O)CN)C(=O)N[C@@H](Cc1ccccc1)C(=O)N[C@@H](CO)C(=O)N[C@@H](CCCCN)C(=O)N[C@@H](CC(C)C)C(=O)N[C@@H](C)C(=O)NCC(=O)N[C@@H](CCCCN)C(=O)N[C@@H](CCCCN)C(=O)N[C@H](C(=O)N[C@@H](CCCCN)C(=O)N[C@@H](CC(N)=O)C(=O)N[C@@H](CC(C)C)C(=O)N[C@@H](CC(C)C)C(=O)N[C@H]1CSCC=CCSC[C@@H](C(=O)NCC(N)=O)NC(=O)[C@H](CC(C)C)NC(=O)CNC(=O)[C@H](CO)NC1=O)[C@@H](C)CC [compound 34] (H-GIFSKLAGKKIKNLLCSGLCG-NH2; linker 16-20 via X1; N-terminus assumed) | 119 (≈ 54 µM) | ~200 (≈ 90.8 µM)
5 | CC[C@H](C)[C@H](NC(=O)CN)C(=O)N[C@@H](Cc1ccccc1)C(=O)N[C@@H](CO)C(=O)N[C@@H](CCCCN)C(=O)N[C@@H](CC(C)C)C(=O)N[C@@H](C)C(=O)NCC(=O)N[C@@H](CCCCN)C(=O)N[C@@H](CCCCN)C(=O)N[C@H](C(=O)N[C@@H](CCCCN)C(=O)N[C@@H](CC(N)=O)C(=O)N[C@H]1CSCc2cccc(c2)CSC[C@@H](C(=O)N[C@@H](CC(C)C)C(=O)N[C@@H](CCCCN)C(=O)NCC(N)=O)NC(=O)[C@H](CO)NC(=O)[C@H]([C@@H](C)CC)NC(=O)[C@H](CC(C)C)NC1=O)[C@@H](C)CC [compound 26] (H-GIFSKLAGKKIKNCLISCLKG-NH2; linker 14-18 via mXylylene; N-terminus assumed) | 44 (≈ 18.9 µM) | 64 (≈ 27.6 µM)
